According to patent publication US20260042764A1, “COMPOSITIONS AND METHODS FOR INHIBITION OF KRAS” (TheRas, Inc., priority 2022, published 2026):

Tests used:
GP2d cells (KRAS G12D) = assay: Cell-based pERK HTRF assay in GP2d cell (Biological Example 2); conditions: GP2d (KRAS G12D) cells
Procedure, shortened: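 Phospho-ERK is measured by HTRF following a 60 min compound exposure at 0.25% DMSO, with a 9-point half-log curve topping at 1 μM or 100 nM.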

[1] = system: MKN1 cells (KRAS amplification); assay: 3D Cell viability assay in MKN1 cells (Biological Example 6); assay type: cell-based; conditions: MKN (MKN1, KRAS amplification) spheroids, 72 hours
Protocol: (§1) Biological Example 6: 3D Cell viability assay in AsPC-1, SW1900, HPAC, Capan-2, RKN, H358, HCT116, KP-2, H1573, A549, MKN1, and HT1080 cells
(§2) The inhibition of cellular viability as a result of test compound treatment in a spheroid assay was measured using the CellTiter-Glow 3D Cell Viability Assay (Promega).
(§3) On Day 1, 1000 cells per well were seeded in 150 μL of complete growth media supplemented with 10% fetal bovine serum (FBS) and incubated at 37° C., in the presence of 5% CO2 in 96-well ultra-low attachment microplates (Corning) for 48 hours undisturbed to allow spheroids to form.
(§4) Following spheroid formation, cells were treated with compounds diluted in DMSO at 0.25% final DMSO concentration. Compounds were dosed in a 9-point concentration curve with three-fold dilution between concentrations. Cells were incubated in the presence of compound for 72 hours at 37° C., in the presence of 5% CO2.
(§5) Following this incubation period, the kit-provided CTG reagent was allowed to equilibrate for 30 minutes at room temperature, 150 μL of equilibrated CTG reagent was added to each well, and the plate was sealed before shaking at 250 rpm for 10 minutes at room temperature to lyse the cells, 150 μL of lysate per well was transferred to a 96-well plate and luminescence was read on a CLARIOstar plate reader.
(§6) Data was imported into the Prism software package (Graphpad) and EC50 values were calculated using the log (inhibitor) vs, response—variable slope (Four parameters) model.

[2] = system: Capan-2 cells (KRAS G12V); assay: 3D Cell viability assay in Capan-2 cells (Biological Example 6); assay type: cell-based; conditions: Capan-2 (KRAS G12V) spheroids, 72 hours
Protocol: as §1, §2, §3, §4, §5, §6

[3] = target: T1, Avi-KRAS G12D (2-169) GTP/RAF1 RBD-3xFLAG (51-131) (Homo sapiens, UniProt P01116, G12D); assay: Raf1-KRAS G12D-GTP disruption HTRF assay (Biological Example 3); assay type: binding; conditions: KRAS G12D, GTP-loaded
T1 construct: Avi-KRAS G12D (2-169)
Procedure, shortened: (§7)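 Compounds were titrated 10-point, 3-fold from 30 μM against preformed KRAS-GTP:RAF1 RBD (51-131) complexes at 50 nM, using KRAS 2-169 as WT, G12C, G12D or G12V. After 1 h at room temperature in Tris pH 7.5 buffer with MgCl2 and 10% DMSO, time-resolved fluorescence was read. Results are percent activity versus DMSO.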

[4] = target: T2, Avi-KRAS WT (2-169) GTP/RAF1 RBD-3xFLAG (51-131) (Homo sapiens, UniProt P01116); assay: Raf1-KRAS WT-GTP disruption HTRF assay (Biological Example 3); assay type: binding; conditions: KRAS WT, GTP-loaded
T2 construct: Avi-KRAS WT (2-169)
Procedure, shortened: as §7

T1 sequence (P01116 2-169 isoform P01116-2 G12D): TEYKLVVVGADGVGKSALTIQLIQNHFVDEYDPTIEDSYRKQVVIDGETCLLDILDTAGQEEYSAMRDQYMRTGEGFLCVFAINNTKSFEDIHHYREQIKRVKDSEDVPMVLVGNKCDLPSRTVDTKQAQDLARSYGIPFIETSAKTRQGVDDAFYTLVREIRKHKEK
T2 sequence (P01116 2-169 isoform P01116-2): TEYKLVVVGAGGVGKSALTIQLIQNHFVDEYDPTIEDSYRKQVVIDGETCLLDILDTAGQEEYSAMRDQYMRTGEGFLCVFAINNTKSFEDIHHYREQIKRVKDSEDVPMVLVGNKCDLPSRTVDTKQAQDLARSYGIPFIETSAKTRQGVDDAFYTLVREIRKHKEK

Compound	IC50 (GP2d cells (KRAS G12D); GP2d, pERK HTRF)	IC50 ([1]; Homo sapiens, MKN-1)	IC50 (GP2d cells (KRAS G12D); GP2d)	IC50 [3]	IC50 [4]	IC50 (GP2d cells (KRAS G12D); GP2d, pERK HTRF, class symbols)	IC50 (GP2d cells (KRAS G12D))	IC50 [1]	IC50 ([2]; Homo sapiens)	IC50 (GP2d cells (KRAS G12D); pERK HTRF)	IC50 [2]
N#Cc1cnn2c1CN(c1nc(OC[C@@]34CCCN3C[C@H](F)C4)nc3c(F)c(-c4ccc(F)c5sc(N)c(C#N)c45)c(C(F)(F)F)cc13)CC2 [Compound 392]	< 100 nM	≤ 100 nM	–	–	–	–	–	–	100 to 1000 nM	–	–
C[C@@H]1[C@H](N(C)c2nc(OC[C@@]34CCCN3C[C@H](F)C4)nc3c(F)c(-c4ccc(F)c5sc(N)c(C#N)c45)c(C(F)(F)F)cc23)CC(=O)N1C [Compound 440]	< 100 nM	≤ 100 nM	–	–	–	–	–	–	100 to 1000 nM	–	–
N#Cc1c(N)sc2c(F)ccc(-c3c(C(F)(F)F)cc4c(N5CC6CC(C5)O6)nc(OC[C@@]56CCCN5C[C@H](F)C6)nc4c3F)c12 (single isomer, unassigned) [Compound 275]	–	≤ 100 nM	< 100 nM	100 to 1000 nM	100 to 1000 nM	–	–	–	≤ 100 nM	< 100 nM	–
CN(c1nc(OC[C@@]23CCCN2C[C@H](F)C3)nc2c(F)c(-c3ccc(F)c4sc(N)c(C#N)c34)c(C(F)(F)F)cc12)[C@H]1C[C@@H](O)C1 [Compound 19, 2-amino-7-fluoro-4-((S)-8-fluoro-2-(((2R,7aS)-2-fluorotetrahydro-1H-pyrrolizin-7a(5H)-yl)methoxy)-4-(((1s,3R)-3-hydroxycyclobutyl)(methyl)amino)-6-(trifluoromethyl)quinazolin-7-yl)benzo[b]thiophene-3-carbonitrile]	–	–	–	≤ 100 nM	≤ 100 nM	–	< 100 nM	≤ 100 nM	–	< 100 nM	100 to 1000 nM
CC(=O)N1CC[C@@H](N(C)c2nc(OC[C@@]34CCCN3C[C@H](F)C4)nc3c(F)c(-c4ccc(F)c5sc(N)c(C#N)c45)c(Cl)cc23)[C@H]1C [Compound 398]	< 100 nM	≤ 100 nM	–	–	–	–	–	–	100 to 1000 nM	–	–
Cc1c(C(=O)N(C)C)nn2c1CN(c1nc(OC[C@@]34CCCN3C[C@H](F)C4)nc3c(F)c(-c4ccc(F)c5sc(N)c(C#N)c45)c(C(F)(F)F)cc13)CC2 (atropisomer, axis not shown; (aS)) [Compound 590, 5-((S)-7-(2-amino-3-cyano-7-fluorobenzo[b]thiophen-4-yl)-8-fluoro-2-(((2R,7aS)-2-fluorotetrahydro-1H-pyrrolizin-7a(5H)-yl)methoxy)-6-(trifluoromethyl)quinazolin-4-yl)-N,N,3-trimethyl-4,5,6,7-tetrahydropyrazolo[1,5-a]pyrazine-2-carboxamide]	–	–	–	100 to 1000 nM	100 to 1000 nM	< 100 nM	< 100 nM	≤ 100 nM	–	–	≤ 100 nM
CCN(c1nc(OC[C@@]23CCCN2C[C@H](F)C3)nc2c(F)c(-c3ccc(F)c4sc(N)c(C#N)c34)c(Cl)cc12)[C@@H]1CCN(C(C)=O)[C@@H]1C [Compound 323]	< 100 nM	≤ 100 nM	–	–	–	–	–	–	≤ 100 nM	–	–

The next lines start with results.

IC50 (GP2d cells (KRAS G12D); GP2d, pERK HTRF)	IC50 ([1]; Homo sapiens, MKN-1)	IC50 (GP2d cells (KRAS G12D); GP2d)	IC50 [3]	IC50 [4]	IC50 (GP2d cells (KRAS G12D); GP2d, pERK HTRF, class symbols)	IC50 (GP2d cells (KRAS G12D))	IC50 [1]	Compound	IC50 ([2]; Homo sapiens)	IC50 (GP2d cells (KRAS G12D); pERK HTRF)	IC50 [2]
< 100 nM	≤ 100 nM	–	–	–	–	–	–	CCC(=O)N1C[C@@H](N(CC)c2nc(OC[C@@]34CCCN3C[C@H](F)C4)nc3c(F)c(-c4ccc(F)c5sc(N)c(C#N)c45)c(C(F)(F)F)cc23)C[C@H]1C [Compound 442]	≤ 100 nM	–	–
< 100 nM	≤ 100 nM	< 100 nM	100 to 1000 nM	100 to 1000 nM	–	–	–	CCN(c1nc(OC[C@@]23CCCN2C[C@H](F)C3)nc2c(F)c(-c3ccc(F)c4sc(N)c(C#N)c34)c(C(F)(F)F)cc12)[C@H]1CCN(C(=O)C(C)C)C1 [Compound 332]	≤ 100 nM	–	–
–	≤ 100 nM	–	–	–	< 100 nM	–	–	CCN(c1nc(OC[C@@]23CCCN2C[C@H](F)C3)nc2c(F)c(-c3ccc(F)c4sc(N)c(C#N)c34)c(C(F)(F)F)cc12)[C@H]1C[C@H](C)N(C(=O)[C@@H]2CC2(F)F)C1 (atropisomer, axis not shown) [Compound 751]	≤ 100 nM	–	–
< 100 nM	≤ 100 nM	< 100 nM	≤ 100 nM	100 to 1000 nM	–	–	–	CCN(c1nc(OC[C@@]23CCCN2C[C@H](F)C3)nc2c(F)c(-c3ccc(F)c4sc(N)c(C#N)c34)c(C(F)(F)F)cc12)[C@H]1CCN(C(C)=O)C1 [Compound 262]	≤ 100 nM	–	–
